Test results from patent US11859229B2, “Polyvinyl alcohol-degrading enzyme and process for producing the same” (Hayashibara Co., Ltd., priority 2017, dated 2024).

Test system: PVA-B
Test: Effects of various metal salts on PVA-oxidizing activity of PVA-B
Assay type: biochemical, Pseudomonas sp. VT1B strain (NBRC110478)
Details: not given
Description: (§1) To 0.5 mL of a substrate solution prepared by dissolving PVA (Reagent grade polyvinyl alcohol, polymerization degree: 2,000, Nacalai Tesque Inc., Kyoto, Japan) into 100 mM sodium phosphate buffer (pH 7.0) to give a concentration of 2% (w/v), 15 µL of 2% (w/v) of sodium azide solution was added, and then 0.5 mL of an enzyme solution is further added and reacted with shaking at 27° C. for 60 min. After the 60 min-reaction, the reaction was stopped by mixing 0.32 mL of the reaction mixture to 0.8 mL of a titanium reagent, and the yellow color, produced by reacting hydrogen peroxide formed by the enzyme reaction and the titanium reagent, was measured by measuring the absorbance at 410 nm (A410) as an index. Separately, the enzyme solution was added to the substrate solution, and the resulting mixture is immediately mixed with the titanium reagent. The resulting mixture was similarly measured its color and the value was used as the value at the reaction zero minutes. Then, the amount of the formed hydrogen peroxide is determined and the PVA-oxidizing activity is calculated based on the following formula. It is known that the absorbance at 410 nm (A410) increases by “1” when 3.65 […]mole/mL of hydrogen peroxide is formed. Therefore, in the following Formula 1, the coefficient of “3.65” has been multiplied. One unit of the PVA-oxidizing activity is defined as the amount of enzyme that forms 1 […]mole of hydrogen peroxide per min under the above conditions. Titanium reagent is prepared by diluting 5% titanium sulfate (IV) solution, commercialized by Nacalai Tesque Inc., Kyoto, Japan, 25-fold with 10% (w/w) sulfuric acid.
(§2) Using the purified enzyme preparations of PVA-A and PVA-B, obtained by the method of Experiment 2, effects of various metal salts on the enzyme activity were investigated according to the assay of the PVA-oxidizing activity as an index in the presence of 1 mM metal salts.

| Compound | Relative activity (%) PVA-B |
| --- | --- |
| [Cl-].[Na+] [NaCl] | 106% |

Same assay, conditions: PVA-oxidizing activity in the presence of 1 mM metal salts; None = 100

| Compound | Relative activity (%) PVA-B |
| --- | --- |
| [Cl][Ni][Cl] [NiCl2] | 76% |
| [Cl-].[Cl-].[Sr+2] [SrCl2] | 101% |
| [Cl-].[K+] [KCl] | 116% |
| [Cl][Fe]([Cl])[Cl] [FeCl3] | 19% |
| [Ca+2].[Cl-].[Cl-] [CaCl2] | 98% |
| O=C(O)CN(CCN(CC(=O)O)CC(=O)O)CC(=O)O [EDTA] | 45% |
| RbCl2 | 99% |
| [Cl][Mn][Cl] [MnCl2] | 87% |
| [Cl][Al]([Cl])[Cl] [AlCl3] | 63% |
| [Cl][Hg][Cl] [HgCl2] | 4% |
| [Cl][Sn][Cl] [SnCl2] | 102% |
| [Cl-].[Cl-].[Mg+2] [MgCl2] | 104% |

Test system: PVA-A
Test: Effects of various metal salts on PVA-oxidizing activity of PVA-A
Assay type: biochemical, Pseudomonas sp. VT1B strain (NBRC110478)
Details: not given
Description: as §1, §2

| Compound | Relative activity (%) PVA-A |
| --- | --- |
| [Cl-].[Na+] [NaCl] | 94% |

Same assay, conditions: PVA-oxidizing activity in the presence of 1 mM metal salts; None = 100

| Compound | Relative activity (%) PVA-A |
| --- | --- |
| [Cl][Ni][Cl] [NiCl2] | 91% |
| [Cl-].[Cl-].[Sr+2] [SrCl2] | 99% |
| [Cl-].[K+] [KCl] | 93% |
| [Cl][Fe]([Cl])[Cl] [FeCl3] | 29% |
| [Ca+2].[Cl-].[Cl-] [CaCl2] | 98% |
| O=C(O)CN(CCN(CC(=O)O)CC(=O)O)CC(=O)O [EDTA] | 56% |
| RbCl2 | 91% |
| [Cl][Mn][Cl] [MnCl2] | 96% |
| [Cl][Al]([Cl])[Cl] [AlCl3] | 91% |
| [Cl][Hg][Cl] [HgCl2] | 22% |
| [Cl][Sn][Cl] [SnCl2] | 78% |
| [Cl-].[Cl-].[Mg+2] [MgCl2] | 98% |

Test system: PVA-A and PVA-B
Test: Effects of metal salts on PVA-oxidizing activity, summary for both enzymes
Assay type: biochemical, Pseudomonas sp. VT1B strain (NBRC110478)
Details: 1 mM, in words
Description: as §2

| Compound | Effect on PVA-oxidizing activity |
| --- | --- |
| [Cl][Fe]([Cl])[Cl] [FeCl3] | remarkably inhibited |
| O=C(O)CN(CCN(CC(=O)O)CC(=O)O)CC(=O)O [EDTA] | also inhibited |
| [Cl][Hg][Cl] [HgCl2] | remarkably inhibited |

Test system: PVA-A
Test: Substrate specificity of PVA-oxidizing activity of PVA-A
Assay type: biochemical, Pseudomonas sp. VT1B strain (NBRC110478)
Details: substrate 1% (v/v) or saturated; activity against PVA = 100%
Description: as §1
(§3) The substrate specificity of PVA-oxidizing activity was investigated by allowing PVA-A and PVA-B, the purified enzyme preparations obtained by the method in Experiment 2, to act on various secondary alcohols, primary alcohols and the like as substrates. In other words, the PVA-oxidizing activity of the enzymes was measured for primary alcohols having different chain length (methanol, ethanol, propanol, butanol, pentanol, hexanol, heptanol, and decanol), secondary alcohols (2-propanol, 2-pentanol, 2-hexanol, 4-heptanol, 2-octanol, 4-decanol, and 2, 4-pentanediol), and a tertiary alcohol (tert-butanol).

| Compound | Relative activity (%) PVA-A |
| --- | --- |
| CCCCC(C)O (stereo not shown) [2-Hexanol] | 5% |
| CC(O)CC(C)O (stereo not shown) [2,4-Pentanediol] | 0% |
| CCCCCCC(O)CCC (stereo not shown) [4-Decanol] | 3% |
| CCCO [Propanol] | 0% |
| CCO [Ethanol] | 0% |
| CO [Methanol] | 0% |
| CCCCCO [Pentanol] | 0% |
| CCCCCCCCCCO [Decanol] | 0% |
| CC(C)O [2-Propanol] | 0% |
| CC(C)(C)O [tert-Butanol] | 0% |
| CCCCCCCO [Heptanol] | 0% |
| CCCC(C)O (stereo not shown) [2-Pentanol] | 2% |
| Butanol | 0% |
| CCCC(O)CCC [4-Heptanol] | 21% |
| CCCCCCO [Hexanol] | 0% |
| CCCCCCC(C)O (stereo not shown) [2-Octanol] | 3% |

Test system: PVA-B
Test: Substrate specificity of PVA-oxidizing activity of PVA-B
Assay type: biochemical, Pseudomonas sp. VT1B strain (NBRC110478)
Details: substrate 1% (v/v) or saturated; activity against PVA = 100%
Description: as §1, §3

| Compound | Relative activity (%) PVA-B |
| --- | --- |
| CCCCC(C)O (stereo not shown) [2-Hexanol] | 8% |
| CC(O)CC(C)O (stereo not shown) [2,4-Pentanediol] | 0% |
| CCCCCCC(O)CCC (stereo not shown) [4-Decanol] | 1% |
| CCCO [Propanol] | 0% |
| CCO [Ethanol] | 0% |
| CO [Methanol] | 0% |
| CCCCCO [Pentanol] | 0% |
| CCCCCCCCCCO [Decanol] | 0% |
| CC(C)O [2-Propanol] | 1% |
| CC(C)(C)O [tert-Butanol] | 1% |
| CCCCCCCO [Heptanol] | 1% |
| CCCC(C)O (stereo not shown) [2-Pentanol] | 5% |
| Butanol | 0% |
| CCCC(O)CCC [4-Heptanol] | 12% |
| CCCCCCO [Hexanol] | 1% |
| CCCCCCC(C)O (stereo not shown) [2-Octanol] | 6% |
